Measurements: article PMC6225228, “Design, Synthesis and Evaluation of N-pyrazinylbenzamides as Potential Antimycobacterial Agents” (Molecules : A Journal of Synthetic Chemistry and Natural …, 2018)
Converted amounts (≈) assume the structure as drawn. “And” between values parts separate entries of the source, which are not always exact repeats. Identical values can stand only once. Like-named read-outs stand apart in the source and are kept apart here.

Tests used:
[1] = system: M. kansasii CNCTC My 235/80 (ATCC 12478); assay: Antimycobacterial microdilution MABA, M. kansasii; format: cell-based, Mycobacterium kansasii; settings: for MIC: Mycobacterium kansasii
[2] = system: Mycobacterium tuberculosis H37Rv CNCTC My 331/88 (ATCC 27294); assay: Antimycobacterial microdilution MABA, M. tuberculosis; format: cell-based; settings: Middlebrook 7H9 with OADC growth supplement, pH = 6.6, MABA; for MIC: Mycobacterium tuberculosis, read-out: Mtb H37Rv ATCC 27294 MIC
[3] = system: M. avium ssp. avium CNCTC My 80/72 (ATCC 15769); assay: Antimycobacterial microdilution MABA, M. avium; format: cell-based, Mycobacterium avium; settings: Mycobacterium avium
[4] = system: Mycobacterium smegmatis CCM 4622 (ATCC 607); assay: Antimycobacterial microdilution, M. smegmatis; format: cell-based; settings: Middlebrook 7H9 with OADC, resazurin; for MIC: Mycolicibacterium smegmatis, read-out: M. smeg. ATCC 607 MIC
[5] = system: Pseudomonas aeruginosa CCM 1961; assay: Antibacterial microdilution broth, PA; format: cell-based; settings: read-out: MIC PA
[6] = system: Escherichia coli CCM 4517; assay: Antibacterial microdilution broth, EC; format: cell-based; settings: read-out: MIC EC
[7] = system: Staphylococcus epidermidis H 6966/08; assay: Antibacterial microdilution broth, SE; format: cell-based; settings: read-out: MIC SE
[8] = system: Staphylococcus aureus H 5996/08 methicillin resistant; assay: microbe, parasite or virus in culture; format: cell-based
[9] = system: Staphylococcus aureus CCM 4516/08; assay: Antibacterial microdilution broth, SA; format: cell-based; settings: read-out: MIC SA
[10] = system: Enterococcus sp. J 14365/08; assay: Antibacterial microdilution broth, EF; format: cell-based; settings: read-out: MIC EF

In the case of `NNC(=O)c1ccncc1` [INH, isoniazid, reference compound], the “M. kans. ATCC 12478 MIC” value ([1]; Middlebrook 7H9 with OADC, pH 6.6, MABA) is reported as 6.25 to 12.5 µg/mL, the MIC ([1]; ATCC12478, pH 6.6, read-out: M. kans. ATCC 12478 MIC, Middlebrook 7H9 with OADC, pH 6.6, MABA) is reported as 3.13 to 12.5 µg/mL (≈ 22.8 to 91.1 µM) and the “Mtb H37Rv ATCC 27294 MIC” value [2] is reported as 0.1 to 0.39 µg/mL. It also gave an MIC [2] of 0.1 to 0.2 µg/mL (≈ 0.729 to 1.46 µM) and an MIC ([3]; ATCC15769, pH 6.6, read-out: M. avium ATCC 15769 MIC) of 6.25 to 12.5 µg/mL (≈ 45.6 to 91.1 µM).
For `CCc1ccc(C(=O)Nc2cncc(Cl)n2)cc1` [Compound 3i], the MIC ([1]; ATCC12478, Middlebrook 7H9 with OADC, pH 6.6, MABA, read-out: M. kans. ATCC 12478 MIC) was > 100 µg/mL, the MIC [2] was > 100 µg/mL and the MIC [4] was ≥ 500 µg/mL. The MIC ([3]; ATCC15769, Middlebrook 7H9 with OADC, pH 6.6, MABA, read-out: M. avium ATCC 15769 MIC) was > 100 µg/mL.
bacitracin [reference compound] was tested, and the MIC ([5]; 72 h) was > 500 µM, the MIC ([5]; 120 h) was > 500 µM and the MIC ([6]; 24 h) was > 500 µM. The MIC ([6]; 48 h) was > 500 µM, the MIC ([7]; 24 h) was 15.62 µM and the MIC ([7]; 48 h) was 31.25 µM. The “MIC MRSA” value ([8]; 24 h) was 15.62 µM, the “MIC MRSA” value ([8]; 48 h) was 31.25 µM and the MIC ([9]; 24 h) was 15.62 µM. It also gave an MIC ([9]; 48 h) of 31.25 µM, an MIC ([10]; 24 h) of 31.25 µM and an MIC ([10]; 48 h) of 31.25 µM.
For `CO[C@H]1/C=C/O[C@@]2(C)Oc3c(C)c(O)c4c(O)c(c(/C=N/N5CCN(C)CC5)c(O)c4c3C2=O)NC(=O)/C(C)=C\C=C\[C@H](C)[C@H](O)[C@@H](C)[C@@H](O)[C@@H](C)[C@H](OC(C)=O)[C@@H]1C` [RFM, rifampicin, reference compound], the “M. smeg. ATCC 607 MIC” value [4] was 1.56 µg/mL and the MIC [4] was 0.78 to 1.56 µg/mL (≈ 0.948 to 1.9 µM).
`NC[C@@H]1O[C@H](O[C@H]2[C@@H](O)[C@H](O[C@@H]3[C@@H](O)[C@H](N)C[C@H](N)[C@H]3O[C@H]3O[C@H](CN)[C@@H](O)[C@H](O)[C@H]3N)O[C@@H]2CO)[C@H](N)[C@@H](O)[C@@H]1O` [Neom, neomycin, reference compound] showed an MIC ([5]; 72 h) of 7.81 µM (≈ 4.8 µg/mL), an MIC ([5]; 120 h) of 15.62 µM (≈ 9.6 µg/mL) and an MIC ([6]; 24 h) of 0.98 µM (≈ 0.602 µg/mL). For the same molecule, the MIC ([6]; 48 h) was 0.98 µM (≈ 0.602 µg/mL), the MIC ([7]; 24 h) was 3.9 µM and 3.90 µM and the MIC ([7]; 48 h) was 7.81 µM (≈ 4.8 µg/mL). For the same molecule, the “MIC MRSA” value ([8]; 24 h) was 0.98 µM (≈ 0.602 µg/mL), the “MIC MRSA” value ([8]; 48 h) was 0.98 µM (≈ 0.602 µg/mL) and the MIC ([9]; 24 h) was 3.9 µM and 3.90 µM. For the same molecule, the MIC ([9]; 48 h) was 3.9 µM and 3.90 µM, the MIC ([10]; 24 h) was 250 µM (≈ 154 µg/mL) and the MIC ([10]; 48 h) was 250 µM (≈ 154 µg/mL).
Molecule `O=C(O)c1cn(C2CC2)c2cc(N3CCNCC3)c(F)cc2c1=O` [CPX, ciprofloxacin, reference compound] has an MIC [4] of 0.195 µg/mL (≈ 0.589 µM).
